Earlier results as cited in patent publication US8993576B2, “6-(1H-indol-4-yl)-4-(5-{[4-1-methylethyl)-1-piperazinyl]methyl}-1,3-oxazol-2-yl)-1H-indazole hemi succinate salt, polymorphs and pharmaceutical compositions thereof” (Glaxo Group Limited, priority 2010, dated 2015).
Like-named read-outs stand apart in the source and are kept apart here.

Legend:
neutrophils [1] = tested on: neutrophils
neutrophils [2] = tested on: neutrophils; remark: listed apart in the source
CK2 protein kinase = CK2 protein kinase (Homo sapiens, UniProt P68400); conditions: read-out: IC50 on CK2 protein kinase
CK2 protein kinase, sequence (P68400 whole entry): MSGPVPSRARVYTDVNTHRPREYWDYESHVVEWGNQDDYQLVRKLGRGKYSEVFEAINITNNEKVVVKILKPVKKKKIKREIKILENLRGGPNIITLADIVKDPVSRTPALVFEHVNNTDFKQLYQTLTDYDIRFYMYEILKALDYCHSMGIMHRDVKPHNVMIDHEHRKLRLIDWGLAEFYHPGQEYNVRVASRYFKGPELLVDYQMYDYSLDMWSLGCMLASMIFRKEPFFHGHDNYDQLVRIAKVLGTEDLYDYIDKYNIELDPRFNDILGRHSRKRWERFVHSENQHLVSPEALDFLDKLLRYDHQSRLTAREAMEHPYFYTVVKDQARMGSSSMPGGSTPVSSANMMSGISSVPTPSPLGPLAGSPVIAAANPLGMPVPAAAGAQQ

neutrophils [3] = conditions: treatment of neutrophils; Thelen et al. 1994

SMILES	effect on superoxide release (neutrophils [1])	effect on neutrophil migration (neutrophils [2])	IC50 (CK2 protein kinase) [µM]	inhibitory activity on phospholipases (phospholipases)	IC50 (Class I PI3-kinases; each of the Class I PI3-kinases, Fruman et al. 1998, read-out: IC50 values against each of these PI3-kinases) [µM]	effect on fMLP-induced respiratory burst response (neutrophils [3])	IC50 (Class I PI3-kinases; each of the four Class I PI3-kinases, read-out: IC50 values against each of the various Class I PI3-kinases) [µM]
O=c1cc(N2CCOCC2)oc2c(-c3ccccc3)cccc12 [LY294002]	block	block	5 to 10	some inhibitory activity	15 to 20		
COC[C@H]1OC(=O)c2coc3c2[C@@]1(C)C1=C(C3=O)[C@@H]2CCC(=O)[C@@]2(C)C[C@H]1OC(C)=O [wortmannin]	block	block				prevents	0.001 to 0.01
